For experiment [1], the system named is uterus. Nature of the experiment: Uterine constriction, isolated uterus in Magnus tube. More on the design: species or system female rat. To be noted: rat uterus, constriction relative to 1 mU oxytocin = 100, EC50 class; read-out: Uterus constriction effect. Here is the method:
A female rat (of 150g in weight) was dehematized to death, and its uterus was taken out, which was cut to a length of 1.5 - 2.5 cm. The cut uterus was hung in a magnus tube. The uterus was constricted several times with 1 mU Oxytocin. After stable uterine movement was obtained, the material to be tested was independently administered. Constrictions with the material were expressed in terms of ratios based on constriction of 1 mU of oxytocin = 100, and values of EC50 were determined on the following standards. +:EC50 < 10^-7 M ±:10^-5 M ≦ EC50 ≦ 10^-7 M -: 10^-5 M < ECso

Experiment [2] concerns trachea. In words: Tracheal relaxation, isolated tracheal rings constricted with histamine. More on the design: species or system male gunea pig. To be noted: guinea pig trachea, inhibition of constriction under histamine 5.4 x 10^-4 M, IC50 class, read-out: Tracheal relaxation effect. Here is the method: A male gunea pig (of about 300 g in weight) was struck to death, and its artery was cut to dehematize. Its trachea, after having been extracted, was cut open lengthwise on the opposite side to the trachea smooth muscle, and seven tracheal rings were connected by string in a chain-like pattern, same being hung in a Magnus tube.
Trachea was brought to rest for 60 - 90 minutes and until tracheal equilibrium was reached. Thereafter, 5.4 x 10 ^-4 M of histamine was administered in such manner that it was cumulatively administered at 6 minutes' intervals after a constriction peak was reached. Tracheal relaxation with the material tested was expressed in terms of ratio of constrictional inhibition under histamine administering, and values for IC50 were determined. + : IC50 < 10^-7 M ± : 10^-5 M ≦ IC50 ≦ 10^-7 M -: 10^-5 M < IC50

The test system of experiment [3] is confinement-stress induced ulcers through immersion in water. In words: Confinement-stress induced ulcers through immersion in water (hydrorestraint stress ulcer preventing effect). The class given is in vivo, male rats of the Crj : Wistar strain. To be noted: for ED50: Rattus norvegicus, po, hydrorestraint stress-ulcer preventing effect, procedure of Test Example 1 (Table 3), read-out: Ulcer inhibiting effect ED50; for ulcer inhibiting effect: conclusion in words from Table 3. Here is the method:
As test samples, we used the PGE as obtained in Examples 2 to 52 as described herein, 13,14-dihydro-15-keto-PGE2 (produced by Funakoshi & Co.) being employed as a control reference.
Each group of test animals used consisted of 8 to 10 male rats of the Crj : Wistar strain, weighing 180 to 230 g. Test animals were fasted for 24 hours before the oral administration of the test samples; in the case of development of confinement-stress induced ulcers through immersion in water, 10 minutes after oral administration of the test specimens, the aminals were confined in a stress cage developed by Univ. of Tokyo, then immersed up to the ensiform process of sternum in water at 23°C for 4 hours and sacrificed; in the case of formation of indomethacin-induced ulcers, shortly after the materials were given, animals were given indomethacin orally at a dose of 10 mg/kg and sacrificed after 5 hours.
The stomacks were taken out, followed by fixation with 1 % formalin, and incised along the greater curvature to carry out investigation under an illuminated magnifier for ulceration. The degree and extent of lesion and ulcer were rated based on the ulceration index being classified into the following five numerical categories: • 0: normal, with no lesion detected; • 1: bleeding or erosion of mucosa; • 2: development of less than 5 small ulcers (not greater than 2 mm in diameter); • 3: generation of not less than 5 small ulcers or a large ulcer (not less than 2 mm in diameter); • 4: generation of not less than 2 large ulcers.
On the basis of the criteria that the rats with the ulceration index of not less than "2", the ulcer inhibition rate (EDso) was calculated from ulcer-generation ratio in the control and the ratio of the test specimens.

In experiment [4] the test system is ileum. Nature of the experiment: Intestinal constriction effect, isolated ileum in Magnus tube. Details: species or system male Wister rat. The note with it: rat ileum, constriction relative to acetylcholine, ED50 class. Here is the method: A male Wister rat (of 250 - 300g in weight) was struck to death, and immediately its carotid artery was cut to dehematize. An ileum portion located about 10 cm from the cecum was extracted, and after its contents were washed away with a Tyrode liquid, a 1.5 - 2 cm long part of it was cut off and hung in a Magnus tube.
The constriction of the ileum was brought to rest for 15 - 20 minutes until the ileum was allowed to be stabilized, and subsequently the ileum was constricted with […]/mt of acetylcholine. After constructions of same magnitude were had two times, the material to be tested was cumulatively administered at one- minute intervals.
Constrictions with the material tested were expressed in terms of ratios, based on constriction per 10 g/m t of acetylcholine, and values for ED50 were determined. + : EDso < 10^-6 M ±: 10^-4 M ≦ ED50 ≦ 10^-6 M -: 10^-4 M < ED50

One may read the ED50 as the midpoint of the dose-response relation.

Read-outs that look alike come from different tables or passages of the source.

Regarding `CCCCCC(=O)CC[C@H]1[C@H](O)CC(=O)[C@@H]1C/C=C\CCCC(=O)O` [Material (1), 13, 14-dihydro-15-keto-PGE2, reference compound], the EC50 is 0.1 to 10 µM in experiment [1] and greater than 100 µM in experiment [4]. For the same compound, the IC50 in experiment [2] (Cavia porcellus) lay within 0.1 to 10 µM. The ED50 in experiment [3] was greater than 20 mg/kg. In addition, the ulcer inhibiting effect entry in experiment [3] is reported as “no pharmacological or physiological effect”. Further, the antiulcerative effect entry in experiment [3] (conclusion in words from Tables 1 and 2) was “no antiulcerative effect”.
Turning to `CCCCCC(=O)CC[C@H]1[C@H](O)CC(=O)[C@@H]1C/C=C\CCCC(=O)OCC` [Material (3), 13, 14-dihydro-15-keto-PGE2 ethyl ester], the EC50 in experiment [1] was greater than 10 µM. Further, the IC50 in experiment [2] is greater than 10 µM. Further, in experiment [3], the ED50 was determined as 1.5 mg/kg and the ulcer inhibiting effect result is “a high degree of ulcer inhibiting effect”. For the same compound, in experiment [4], the EC50 is greater than 100 µM.

The record behind these values is patent EP0284180A1, “Prostaglandins E and anti ulcers containing same” (Kabushiki Kaisha Ueno Seiyaku Oyo Kenkyujo, priority 1987, dated 1988).
